From patent US6544541B1, “Devices and compounds for treating arterial restenosis” (Cardiovascular Solutions, Inc., priority 1999, dated 2003)

Columns and labels:
porcine femoral artery = assay: balloon angioplasty of the porcine femoral artery in vivo; set-up: species or system pigs; conditions: 14 days
Text: To test the effectiveness of MIBG under in vivo conditions, this compound was applied to the femoral artery after balloon angioplasty. This model provided a means of testing both MIBG and the method of application. Specifically, male castrated farm pigs (25-30 kg) were anaesthetized and maintained on isoflurane throughout the procedure. With the pig in a supine position, the left femoral artery was exposed from the bifurcation of the femoral and superficial femoral arteries to the point of insertion of the femoral artery into the groin. A mixture of nitroglycerin and papaverine was applied to the vessel and the area was covered with a saline-soaked sponge to keep the tissues moist. The right femoral artery was also exposed, treated and covered with a sponge. The left femoral was then clamped at both groin insertion (proximal) and bifurcation (distal) points, and an arteriotomy made at the bifurcation. The balloon (6.0×20 mm) was inserted through the arteriotomy in a retrograde manner (i.e. toward the groin) to a position 20 mm from the arteriotomy and the proximal clamp removed. The balloon was inflated for 1 minute, deflated and carefully removed, and the arteriotomy was closed with 6.0 ProleneTM suture. MIBG in combination with a biocompatible glue, in this example, Tisseel®, was applied to the surface of the vessel extending from the arteriotomy to the proximal region past the site of balloon inflation. The fibrin glue ensured that MIBG slowly diffused into the vessel. Furthermore, the fibrin glue helps to retain MIBG at the site for several days. The right femoral was handled as described above. […] The extent of restenosis was subsequently monitored by morphometry. […] Digital images were captured with a DAGE-MTI CCD camera and analyzed with SigmaScan Software. The neointimal and medial areas are quantified and used to calculate the neointimal index: neointimal area/medial area. […] Even though the vehicle cannot be detected after 14 days, we conclude that it remains for the minimum period necessary.

MAP kinase = MAP kinase activity gel after insulin stimulation of H4IIE cells; assay type: cell-based; conditions: 50 μM MIBG; 1 μM insulin; 2-20 minutes; FIG. 27
Procedure: Extracts were prepared at 2, 5, 10 and 20 minutes after insulin addition. MAP kinase activity was measured using an activity gel protocol with myelin basic protein polymerized in the separating gel, as described in Yau and Zahradka, 1997, Mol Cell Biochem 172: 59-66. Scanning densitometry was used to quantify the band intensities. The location of the 42 and 44 kDa MAP kinase bands was confirmed by Western blot analysis.

c-fos = c-fos gene expression by RT-PCR in human smooth muscle cells; assay type: cell-based; conditions: 25 μM MIBG pretreatment (10 minutes), then IGF-1 stimulated 15 minutes
[1] = tested on: porcine coronary arteries; assay: coronary artery organ culture after balloon angioplasty (neointimal index); conditions: 25 μM in culture media over 14 days; FIG. 10
Text: Although smooth muscle cell cultures can be used to determine the ability of a compound to inhibit proliferation, these cells are not good indicators of a compound's ability to prevent restenosis. This statement stems from the fact that several processes, including cell migration, proliferation and synthesis of ECM degrading enzymes, must be coordinately activated in order for restenosis to occur. A novel organ culture system has therefore been developed in order to test the effectiveness of MIBG and other compounds at preventing restenosis (Wilson et al, 1999, Cardiac Res 42: 761-772). In brief, hearts are transported from the abattoir to the laboratory on ice. The left descending coronary artery is exposed and a balloon catheter is inserted past the first bifurcation. The balloon is inflated, and after 1 minute is deflated and withdrawn. The damaged region (approximately 20 mm in length) is excised, cut into 4 pieces of 5 mm and each piece is placed into an individual well of a culture dish. These segments can be maintained in media containing 20% serum for up to 21 days. Upon harvest of the tissue, typically after 14 days, the vessel segments are placed into resin for histological analysis. Sections are prepared from vessel segments after removal of the first 1.5 mm. […] This file is imported into SigmaScan™, and staining in the areas of the intimal and medial layers quantified. […]

## meta-iodobenzylguanidine [MIBG]
Porcine femoral artery; 25 mM in a 1.0 ml Tisseel bolus applied to vessel surface, FIGS. 20 and 21
  restenosis after balloon angioplasty: effectively prevents restenosis
Porcine femoral artery; 25 mM in a 1.0 ml Tisseel bolus, FIG. 20
  medial fibrosis or cell loss: no evidence of medial fibrosis
MAP kinase
  MAP kinase activation by insulin: does not inhibit MAP kinase activation by insulin
c-fos
  c-fos mRNA levels: equivalent to or below basal
[1]
  neointimal index: effectively reduces the neointimal index to control values
